Key:
[1] = tested on: colorectal cell line (HT29); experiment: XTT-assay proliferation rate, colorectal cell line HT29; assay type: cell-based, human
Method: Commercially available human tumor cell lines were purchased from ATCC (ATCC/LGC-standards, Borás, Sweden). Cell lines from urinary bladder (UM-UC-3, #CRL-1749), colorectal carcinoma (Colo205, #CCL-222 and HT29, #HTB-38), prostate carcinoma (LNCaP, #CRL-1740) and breast carcinoma (ZR-75-1, #CRL-1500) were purchased and stored in liquid nitrogen. Cells were cultured in Roswell Park Memorial Institute media (RPMI-1640) or minimum essential medium with Earl's salts (EMEM) supplemented with 10% Foetal calf serum (FCS, Sigma) and cultured using a 37° C. cell culture incubator (Forma Scientific, NinoLab, Kungsbacka, Sweden) with 5% CO2 humidified atmosphere. Tumor cell lines were handled aseptically using a laminar airflow (LAF) bench (Holten 2448, Ninolab, Sweden) and stored in a liquid nitrogen tank and were initiated in culture as previously described (Falk P. Experimental models of the peritoneal environment: Effects of TGF-beta and Hyaluronan. Göteborg: University of Gothenburg; 2008). Briefly, ampoules of frozen cells were thawed by submerging into a 37° C. water bath for 45 s. Cells were resuspended in 10 ml of preheated RPMI-1640 with 10% FCS and centrifuged in 260 g for 10 min. With supernatant discarded, cell pellets were further resuspended with 5 ml complete medium into 25 cm^2 cell culture flasks (Cell+, Sarstedt, Nümbrecht, Germany). Tumor cells were cultured until sub-confluence and further sub-cultured with Trypsin (0.5%), EDTA (0.2%) solution (T4174, TE-10x, Sigma) in sterile sodium chloride. Culture media was changed two-three times a week. Culture flasks (Cell+, Sarstedt, Nümbrecht, Germany) and culture plates (Falcon/BD, Franklin Lakes, N.J., USA) were used for experimental set-ups. Cells were regularly monitored using an inverted microscope connected to a digital photo equipment (Axiovert 25 and Axiovision, Zeiss, Carl Zeiss AG, Germany) (FIG. 1). Described culture techniques and equipment have been used extensively in the laboratory
The proliferation rates of the different human tumor cell lines were studied using a method based on the conversion of a sodium salt (XTT-assay, Sigma) into a stable orange color that could be analyzed in a spectrophotometer. The color change is proportional to the mitochondrial dehydrogenase activity resulting in an effective technique for measuring cell toxicity (Roehm N W, Rodgers G H, Hatfield S M, Glasebrook A L. An improved colorimetric assay for cell proliferation and viability utilizing the tetrazolium salt XTT. J Immunol Methods 1991;142(2):257-65) or cell proliferation. The color change was measured using a 96-well plate reader with software to calculate the absorbance at 450 nm (V-max/Softmax Pro, Molecular Devices, USA). Cells were cultured until approx 50% confluence and then pre-incubated for 24 h with RPMI-1640 or EMEM containing 1% FCS only. RPMI 1640 and EMEM without phenol red was used during the experiments to reduce the red color background signal in the XTT-assay.
Prior to the experimental start all cells were gently washed once with RPMI 1640 and EMEM with 1% FCS. Increasing concentrations of substance ivermectin was added with an 8-channel pipette (Titertek, Kem-En-Tec, Taastrup, Denmark) together with sterile pipette tips (Molecular Bioproducts, San Diego, Calif., USA). Cell cultures including active substances were incubated for 24 hours (and 96 hours). Untreated wells including culture medium only served as untreated controls. The XTT-assay substrate was added and after gentle agitation using a micro plate shaker, absorbencies at 450 and 650 nm were measured. Levels from medium were subtracted and compared with control wells, using culture medium only.

[2] = tested on: colorectal cell line HT29; experiment: Morphology of cultured tumor cells, HT29; assay type: cell-based, human
Method: Commercially available human tumor cell lines were purchased from ATCC (ATCC/LGC-standards, Borás, Sweden). […] Briefly, ampoules of frozen cells were thawed by submerging into a 37° C. water bath for 45 s. […] With supernatant discarded, cell pellets were further resuspended with 5 ml complete medium into 25 cm^2 cell culture flasks (Cell+, Sarstedt, Nümbrecht, Germany). Tumor cells were cultured until sub-confluence and further sub-cultured with Trypsin (0.5%), EDTA (0.2%) solution (T4174, TE-10x, Sigma) in sterile sodium chloride. Culture media was changed two-three times a week. Culture flasks (Cell+, Sarstedt, Nümbrecht, Germany) and culture plates (Falcon/BD, Franklin Lakes, N.J., USA) were used for experimental set-ups. Cells were regularly monitored using an inverted microscope connected to a digital photo equipment (Axiovert 25 and Axiovision, Zeiss, Carl Zeiss AG, Germany) (FIG. 1). Described culture techniques and equipment have been used extensively in the laboratory
The effect of Ivermectin, selamectin, abamectin alone, or in combination with ketoconazole, albendazole, ibuprofen, diclofenac and celecoxib on the morphology of cultured human tumor cells was studied. The effect of ivermectin in the presence of increasing concentration of ivermectin was also investigated. […]

22,23-dihydroavermectin B1a+22,23-dihydroavermectin B1b [ivermectin]
Proliferation rate in per cent compared to untreated medium control ([1]; ivermectin 10e-9 mol/L): 109 ± 14%
Proliferation rate in per cent compared to untreated medium control ([1]; ivermectin 10e-8 mol/L): 112 ± 12%
Proliferation rate in per cent compared to untreated medium control ([1]; ivermectin 10e-7 mol/L): 106 ± 9%
Proliferation rate in per cent compared to untreated medium control ([1]; ivermectin 10e-6 mol/L): 91 ± 5%
Effect on proliferation rate ([1]; ivermectin 100 μM): decreased proliferation rate
Proliferation rate in per cent compared to untreated medium control ([1]; ivermectin 10e-5 mol/L): 85±11%
Proliferation rate in per cent compared to untreated medium control ([1]; ivermectin 10e-4 mol/L): 5±1%
Effect on morphology ([2]; ivermectin 100 μM): affected
Morphological effects over the concentration series ([2]; ivermectin 10e-4 to 10e-10 mol/L (FIG. 2)): not morphologically affected even at the highest concentration

Reference: US9782424B2, “Synergistic combination comprising avermectins and a NSAID for tumor inhibition” (Ectin Research AB, priority 2011, dated 2017)
